Experimental data reported in ChEMBL document CHEMBL1795249, “Triazole-linked reduced amide isosteres: an approach for the fragment-based drug discovery of anti-Alzheimer's BACE1 inhibitors” (Bioorg Med Chem Lett, 2011).

Biological target: Beta-secretase 1 (Homo sapiens, UniProt P56817)
Experiment: Inhibition of BACE1 by cell-free FRET assay

Sequence of Beta-secretase 1 (P56817 whole entry): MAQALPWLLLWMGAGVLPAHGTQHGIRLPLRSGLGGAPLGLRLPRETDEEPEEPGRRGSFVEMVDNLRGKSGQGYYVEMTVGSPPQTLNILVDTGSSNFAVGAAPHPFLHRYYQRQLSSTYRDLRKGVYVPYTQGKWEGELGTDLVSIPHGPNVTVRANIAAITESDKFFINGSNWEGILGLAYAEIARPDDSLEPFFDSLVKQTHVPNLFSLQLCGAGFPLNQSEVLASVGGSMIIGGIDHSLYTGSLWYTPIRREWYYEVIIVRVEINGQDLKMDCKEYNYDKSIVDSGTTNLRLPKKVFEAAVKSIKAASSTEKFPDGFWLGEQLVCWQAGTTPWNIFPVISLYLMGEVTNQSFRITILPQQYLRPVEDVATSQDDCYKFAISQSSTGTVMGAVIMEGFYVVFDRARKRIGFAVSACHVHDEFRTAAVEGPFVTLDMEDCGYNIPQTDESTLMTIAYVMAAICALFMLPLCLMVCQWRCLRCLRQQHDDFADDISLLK

| IC50 [µM] | SMILES |
| --- | --- |
| 7 | COc1cccc(CNC[C@H](Cc2ccccc2)n2cc(-c3cc(C(=O)N[C@H](C)c4ccccc4)cc(N(C)S(C)(=O)=O)c3)nn2)c1 |
| 2.4 | C#Cc1cccc(NC2CC(Nc3cccc(-c4cn([C@H](CNCc5cccc(Br)c5)Cc5ccccc5)nn4)c3)C(O)CC2O)c1 (mixture of isomers) |
| 3.4 | C#Cc1cccc(NC2CC(O)C(Nc3cccc(-c4cn([C@H](CNCc5cccc(Br)c5)Cc5ccccc5)nn4)c3)CC2O)c1 (mixture of isomers) |
| 2 | C[C@@H](NC(=O)c1cc(-c2cn([C@H](CNCc3cccc(Br)c3)Cc3ccccc3)nn2)cc(N(C)S(C)(=O)=O)c1)c1ccccc1 |
